Earlier results on one compound are cited in patent US20100104622A1, “Ligand Targeted Nanocapsules for the delivery of RNAi and other Agents” (priority 2008, published 2010).

Molecules are shown by their SMILES.

In the data set the test system is advanced stage melanoma. Particulars: melanoma patients.

In the case of `COc1cccc2c1C(=O)c1c(O)c3c(c(O)c1C2=O)C[C@@](O)(C(=O)CO)C[C@@H]3O[C@H]1C[C@H](N)[C@H](O)[C@H](C)O1` [Doxorubicin], the “efficacy in advanced stage melanoma” value is given as “essentially ineffective”.
